Earlier results as cited in patent publication US20210220286A1, “PHARMACEUTICAL COMPOSITION COMPRISING AMORPHOUS SUNITINIB” (SYNTHON B.V., priority 2018, published 2021).

Conditions: WO03016305, cited from earlier work; for stability of polymorphic form: ambient conditions

Row | Compound | stability of polymorphic form | hygroscopicity of polymorphic form | solubility of polymorphic form (compared with form I)
1 | CCN(CC)CCNC(=O)c1c(C)[nH]c(/C=C2\C(=O)Nc3ccc(F)cc32)c1C [Form II, sunitinib L-malate] | less stable | hygroscopic | more soluble
2 | CCN(CC)CCNC(=O)c1c(C)[nH]c(/C=C2\C(=O)Nc3ccc(F)cc32)c1C [Form I, sunitinib L-malate] | most stable form |  | 
